Assay results as given in US20240285566A1, “SUBCUTANEOUS FORMULATION AND METHODS FOR TREATING EDEMA REFRACTORY TO ORAL DIURETICS” (RESQ Pharmaceuticals LLC, priority 2021, published 2024).

What was measured:
[1] = Solubility of bumetanide free acid in water with and without tetradecyl-β-D-maltoside (HPLC); format: physicochemical
Procedure: Bumetanide, 10 mg, in its free acid form was added to 1 mL of deionized water and mixed using a vortex and sonicator. The solution was filtered using a 0.22 μm nylon syringe filter. To 900 μL deionized water, 100 μL of the filtered bumetanide solution was added before being characterized for the concentration of the bumetanide in solution using HPLC. The concentration of bumetanide was determined using a standard curve generated by bumetanide solutions of known concentrations. […] Therefore, to the 10 mg of bumetanide, 1 mL of deionized water containing 1.0%, 0.5% or 0.1% of the surfactant tetradecyl-β-D-maltoside. The bumetanide was then solubilized using a vortex and sonicator, after which it was filtered using a 0.22 μm nylon syringe filter. To 900 μL deionized water, 100 μL of the filtered bumetanide solution was added before being characterized for the concentration of the bumetanide in solution using HPLC. The resulting bumetanide concentrations are recorded in Table 1.

in vivo = assay: in vivo; set-up: species or system beagle dogs; conditions: dog
Procedure: The purpose of this study was to assess the pharmacokinetic profiles of various formulations of bumetanide, including arginine bumetanide salts (FS-5 and FS-6) and potassium bumetanide salts (FS-3 and FS-4) for subcutaneous administration, and an bumetanide intranasal formulation (F82), which are described in Table 60, when each formulation is administered as a single subcutaneous, or intranasal in different vehicles when compared to single IV administration dose in male and female beagle dogs.
A total of four dogs were assigned to the study (3 males, 9-13 kg and 1 female, 7-10 kg) ranging from 1 to 3 years old.
The study was conducted in 6 Events in the same animals, separated by at least 48 hours or more washout period between events.
For subcutaneous administration the bumetanide formulations were injected subcutaneously (100 μL/dog), using a 25G hypodermic needle. After each application, successful dosing was verified by visual inspection of the dog injection site and after 1 minute of dosing. Only successful administrations will be accepted.
For intranasal administration, each dog was held in an upright position with the nose pointing up. The test article (50 μL) was delivered into each nostril (total 100 μL/dog). The nose was held pointing up for ˜60 seconds after dosing. After each application, successful dosing was verified by visual inspection of the pipette tip and the dog nostril.
For intravenous administration, the commercially available injection of bumetanide (Walgreens, 0.25 mg/mL) was used and administered via the cephalic vein over a period of 30 seconds (4.0 mL/dog, IV).
Body weights of the dogs were measured for each dog prior to each dose on the day of dose, and approximately 48 hours post-dose for each event. For some events, the 48 hour post-dose weight was the same weight as the pre-dose weight for the following dose. Urine production was also monitored post-dose to assess diuresis by making observations at 30 minutes, 1, 2, 3 and 4 hours post-dose. Urine volume was not measured. On each day of dosing, blood (˜600 μL/timepoint, jugular or cephalic vein) were collected in red top tubes with clotting activator (Sarstedt, Inc-41.1392.105 or similar) to obtain serum at the times described in Table 61. Blood was centrifuged at 5000×g for 10 minutes at 4° C. If the samples were collected outside the collection window, they were not be considered a protocol deviation. Serum was divided into 2 aliquots of ˜150 μL each and stored frozen at −20° C. until it was shipped to Climax Laboratories, Inc. on dry ice.

[2] = Stability of arginine and potassium bumetanide salts over four weeks; format: physicochemical; conditions: for stability of the salt solution: at either 5° C. or 25° C.
Procedure: The stability of the arginine and potassium bumetanide salts was monitored over a four week period with storage at either 2-8° C. or 25° C. for that time period. The bumetanide salt solutions were evaluated on the basis of pH, concentration of bumetanide in solution, the percent assay recovery and the presence of an impurity (see Tables 17 and 18).

| SMILES | Assay ([2]; 1 week at 5° C.) | pH ([2]; 1 week at 5° C.) | Assay ([2]; 1 week at 25° C.) | pH ([2]; 1 week at 25° C.) | Assay ([2]; 2 weeks at 5° C.) | pH ([2]; 2 weeks at 5° C.) | Assay ([2]; 2 weeks at 25° C.) | pH ([2]; 2 weeks at 25° C.) | Assay ([2]; 4 weeks at 5° C.) | pH ([2]; 4 weeks at 5° C.) | Assay ([2]; 4 weeks at 25° C.) | pH ([2]; 4 weeks at 25° C.) | Assay ([2]; T0) | Osmolality ([2]; T0) | Viscosity ([2]; T0) | pH ([2]; T0) | stability of the salt solution [2] | further results |
| --- | --- | --- | --- | --- | --- | --- | --- | --- | --- | --- | --- | --- | --- | --- | --- | --- | --- | --- |
| CCCCNc1cc(C(=O)O)cc(S(N)(=O)=O)c1Oc1ccccc1 [Bumetanide] |  |  |  |  |  |  |  |  |  |  |  |  |  |  |  |  |  | solubility in water ([1]; free acid form, deionized water, no surfactant): Nearly no bumetanide in the free acid form was soluble water; solubility in water ([1]; not in a salt form, in the presence of surfactant): incredibly low solubility in water; AUC (in vivo; beagle, iv, 1 mg): 140 ng·h/mL; AUC (in vivo; beagle, iv, 1 mg, AUC (ng*h/mL)): 140 ng·h/mL; AUC (in vivo; both sexes, beagle, iv, 1 mg): 185 ng·h/mL; AUC(0-t) (in vivo; both sexes, beagle, iv, 1 mg): 185 ng·h/mL; AUC (in vivo; both sexes, beagle, iv, 1 mg, AUC (ng*h/mL)): 185 ng·h/mL |
| CCCCNc1cc(C(=O)O)cc(S(N)(=O)=O)c1Oc1ccccc1.N=C(N)NCCCC(N)C(=O)O [arginine bumetanide salt] | 5.08 mg/mL | 7.0 | 5.06 mg/mL | 7.1 | 4.99 mg/mL | 7.0 | 4.97 mg/mL | 7.0 | 4.89 mg/mL | 7.0 | 4.97 mg/mL | 7.1 | 5.07 mg/mL | 335 mOsm/kg | 1.3 cP | 7.0 | stable for up to four weeks | impurity by HPLC ([2]; initially or after four weeks, 5° C. and 25° C.): no impurity was detected |
| CCCCNc1cc(C(=O)[O-])cc(S(N)(=O)=O)c1Oc1ccccc1.[K+] [potassium bumetanide salt] | 5.18 mg/mL | 7.0 | 5.10 mg/mL | 7.0 | 4.97 mg/mL | 7.0 | 4.96 mg/mL | 7.1 | 5.00 mg/mL | 7.0 | 5.03 mg/mL | 7.1 | 5.10 mg/mL | 317 mOsm/kg | 1.3 cP | 7.0 | stable for up to four weeks | serum concentrations compared to IV administration of bumetanide (in vivo): higher serum concentrations |
